The subject of this experiment is G. duodenalis BRIS/91/HEPU/1279. Kind of experiment: Primary Giardia screen at 10 µM (live-cell imaging, automated counting). Format: cell-based, Giardia duodenalis. The conditions noted are these: for % Inhibition n=1 48h / % Inhibition n=1 24h: first singlicate assay; for % Inhibition n=2 24h / % Inhibition n=2 48h: re-assessment. A digest of the protocol:
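Singlicate, 10 μM final, 0.2% DMSO; sealed chambers, 3% O2/5% CO2/N2. Counts by live-cell imaging at 24 h and 48 h. % growth vs vehicle, media background subtracted; Z' per plate.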

Structures are written as SMILES.

Turning to `Cc1cccc(-c2noc(C3CCCN3S(=O)(=O)c3ccc(C(C)(C)C)cc3)n2)c1` (stereo not shown) [SN00797487], the “% Inhibition n=1 48h” value came to 0.0%.

Consider `Cc1cccc(-c2noc(C3CCCN3S(=O)(=O)c3cc(C)c(C)cc3C)n2)c1` (stereo not shown) [SN00797488], for which the “% Inhibition n=1 48h” value was determined as 0.0%.

As to `CCCNC(=O)Cn1cccc1-c1nc(-c2ccc(Cl)cc2)cs1` [SN00797520], the “% Inhibition n=1 48h” value came to 24.8%.

Regarding `COc1ccc(CNS(=O)(=O)c2ccc3onc(C(=O)N4CCCCC4)c3c2)cc1OC` [SN00797555], the “% Inhibition n=1 48h” value is 0.0%.

For `COc1ccc(OC)c(NC(=O)C2CC(=O)N(c3cccc(NC(C)=O)c3)C2)c1` (stereo not shown) [SN00797576], the “% Inhibition n=1 48h” value was determined as 0.0%.

Turning to `O=C(Nc1ccc2sc(NS(=O)(=O)c3ccccc3)nc2c1)Nc1ccccc1Cl` [SN00797595], the “% Inhibition n=1 48h” value is listed as 4.6%.

For `O=C(NCC1CCCO1)Nc1ccc2sc(NS(=O)(=O)c3ccccc3)nc2c1` (stereo not shown) [SN00797600], the “% Inhibition n=1 48h” value is listed as 23.5%.

As to `COc1ccc(CNC(=O)c2sc(Nc3ccc(F)cn3)nc2C)cc1` [SN00797617], the “% Inhibition n=1 48h” value is listed as 12.4%.

For the compound `Cc1ccnc(Nc2nc(C)c(C(=O)NC3CC3)s2)c1` [SN00797622], the “% Inhibition n=1 48h” value stood at 13.3%.

Regarding `COc1ccc(CCNS(=O)(=O)c2cccc(-c3nc(-c4ccc(C)cc4)no3)c2)cc1OC` [SN00797669], the “% Inhibition n=1 48h” value turned out to be 6.7%.

In the case of `Cc1ccc(-c2noc(-c3cccc(S(=O)(=O)N4CCN(c5ccc(F)cc5)CC4)c3)n2)cc1` [SN00797676], the “% Inhibition n=1 48h” value is 0.0%.

With `Cc1ccc(-c2nnc(-c3cccnc3N3CCCC3)o2)cc1` [SN00797693], the “% Inhibition n=1 48h” value is given as 0.0%.

As for `COc1ccc(-c2nnc(-c3cccnc3N3CCN(C(=O)c4cccc(OC)c4)CC3)o2)cc1` [SN00797707], the “% Inhibition n=1 48h” value was 2.3%.

In the case of `CCCOc1ccc(-c2noc(Cc3nc(-c4cccc(OC)c4)cs3)n2)cc1` [SN00797723], the “% Inhibition n=1 48h” value was 4.6%.

Regarding `COc1ccc2cc(-c3csc(Cc4nc(-c5ccccn5)no4)n3)c(=O)oc2c1` [SN00797738], the “% Inhibition n=1 48h” value was found to be 2.5%.

On to `NC(=O)C1CCN(C(=O)c2snc(C(=O)NCc3ccccc3)c2N)CC1` [SN00797750], for which the “% Inhibition n=1 48h” value is reported as 8.9%.

Take `COc1cccc(CNC(=O)c2nsc(C(=O)NCc3ccccc3F)c2N)c1` [SN00797759]: the “% Inhibition n=1 48h” value was found to be 13.9%.

As for `CCCCOc1ccc(CNC(=O)C2CCN(c3nccc4sc(C)cc34)CC2)cc1` [SN00797785], the “% Inhibition n=1 48h” value was determined as 27.9%.

For the compound `Cn1ccc2c(cc(C(=O)N3CCC(N4CCCCC4)CC3)n2C)c1=O` [SN00797819], the “% Inhibition n=1 48h” value amounted to 18.7%.

With `Cc1ccc(NC(=O)c2cc3c(=O)n(CC(C)C)ccc3n2C)cc1` [SN00797828], the “% Inhibition n=1 48h” value was found to be 17.5%.

As for `CCC(C)NC(=O)c1cc2c(=O)n(Cc3ccccc3)ccc2s1` (stereo not shown) [SN00797832], the “% Inhibition n=1 48h” value is 11.3%.

Turning to `COc1ccc(CNC(=O)c2cc3c(=O)n(Cc4ccccc4)ccc3s2)cc1` [SN00797837], the “% Inhibition n=1 48h” value was 0.0%.

Consider `COc1cccc(CNC(=O)Cn2ccc3sccc3c2=O)c1` [SN00797886], for which the “% Inhibition n=1 48h” value worked out at 6.6%.

`COc1ccccc1OCCNC(=O)Cn1ccc2c(c(C)nn2-c2ccccc2)c1=O` [SN00797916]: the “% Inhibition n=1 48h” value turned out to be 27.1%.

As to `CCS(=O)(=O)c1nc2ccc(NS(=O)(=O)c3ccc4c(c3)OCCO4)cc2s1` [SN00797922], the “% Inhibition n=1 48h” value is listed as 0.0%.

Take `CCCS(=O)(=O)c1nc2ccc(NS(=O)(=O)CCc3ccccc3)cc2s1` [SN00797950]: the “% Inhibition n=1 48h” value came out at 20.2%.

With `COc1cccc(CNC(=O)C2CCCN(c3nccc4c(C)nn(C)c34)C2)c1` (stereo not shown) [SN00797953], the “% Inhibition n=1 48h” value was determined as 0.0%.

Consider `COc1cccc(Cn2nc3c(S(=O)(=O)N4CCOCC4)cccn3c2=O)c1` [SN00798018], for which the “% Inhibition n=1 48h” value turned out to be 4.9%.

As to `O=c1n(Cc2cccc(Br)c2)nc2c(S(=O)(=O)N3CCOCC3)cccn12` [SN00798020], the “% Inhibition n=1 48h” value is recorded as 0.0%.

For `CCc1ccc(-n2ccc(=O)c(-c3nc(-c4cccc(Cl)c4)no3)n2)cc1` [SN00798039], the “% Inhibition n=1 48h” value was determined as 4.9%.

In the case of `Cc1cccc(-c2cc(N3CCN(C(=O)c4cc(Cl)ccc4F)CC3)ncn2)c1` [SN00798065], the “% Inhibition n=1 48h” value worked out at 47.1%.

In the case of `Cc1ccc(-c2noc(-c3cccn4c(=O)n(CC(=O)Nc5cc(C)ccc5C)nc34)n2)cc1` [SN00798102], the “% Inhibition n=1 48h” value turned out to be 23.0%.

Take `COc1ccc(-n2nnc(-c3nsc(Nc4ccc(Cl)cc4)n3)c2C)cc1` [SN00798137]: the “% Inhibition n=1 48h” value came out at 11.6%.

With `COc1ccc(Nc2nc(-c3nnn(-c4ccc(F)cc4F)c3C)ns2)cc1OC` [SN00798157], the “Average % Inhibition 24h” value is 11.4%, the “% Inhibition n=1 24h” value is recorded as 18.3%, the “% Inhibition n=2 24h” value is listed as 4.5% and the “Average % Inhibition 48h” value was determined as 26.3%. The “% Inhibition n=1 48h” value is listed as 52.7% and the “% Inhibition n=2 48h” value amounted to 0.0%.

On to `CCc1ccc(CNC(=O)c2cc3ccncc3n2C)cc1` [SN00798182], for which the “% Inhibition n=1 48h” value is listed as 20.1%.

Turning to `CC(NC(=O)c1cc2ccncc2[nH]1)c1ccccc1` (stereo not shown) [SN00798186], the “% Inhibition n=1 48h” value was 4.2%.

For `COc1ccc(OC)c(CNC(=O)c2ccc3[nH]c4c(c3c2)CN(C(C)=O)CC4)c1` [SN00798195], the “% Inhibition n=1 48h” value is 0.0%.

`O=C(NCCc1ccccn1)c1ccc2[nH]c3c(c2c1)CN(C(=O)C1CCC1)CC3` [SN00798214]: the “% Inhibition n=1 48h” value was 0.0%.

Regarding `CCN1CCc2[nH]c3ccc(NC(=O)c4ccn(CC)n4)cc3c2C1` [SN00798224], the “% Inhibition n=1 48h” value was 1.1%.

Take `COC(=O)c1ccccc1NC(=O)Nc1ccc2[nH]c3c(c2c1)CN(C(C)C)CC3` [SN00798231]: the “% Inhibition n=1 48h” value was 4.3%.

Consider `CNC(=O)N1CCC(c2nc(C)c(C(=O)NCCCOC)s2)CC1` [SN00798240], for which the “% Inhibition n=1 48h” value is given as 6.4%.

In the case of `Cc1nc(C2CCN(C(=O)Nc3ccccc3)CC2)sc1C(=O)N1CCCCCC1` [SN00798241], the “% Inhibition n=1 48h” value came out at 0.0%.

With `Cc1ccc(-c2nc(-c3cccc(-c4ccn[nH]4)c3)no2)cc1` [SN00798298], the “Average % Inhibition 24h” value was determined as 6.3%, the “% Inhibition n=1 24h” value turned out to be 9.4%, the “% Inhibition n=2 24h” value turned out to be 3.2% and the “Average % Inhibition 48h” value came to 41.5%. Moreover, the “% Inhibition n=1 48h” value came out at 55.6% and the “% Inhibition n=2 48h” value worked out at 27.4%.

Consider `Cc1cc(-c2cc(S(=O)(=O)N(CCN(C)C)Cc3cccs3)c(C)s2)[nH]n1` [SN00798340], for which the “% Inhibition n=1 48h” value was determined as 13.6%.

As to `Cc1nc(-c2ccc3c(c2)n(CC(=O)NC2CCN(Cc4ccccc4)CC2)c(=O)n3C(C)C)no1` [SN00798376], the “% Inhibition n=1 48h” value was found to be 5.7%.

As to `Cc1nnc(-c2ccc3ccn(CC(=O)NC4CC4)c3c2)o1` [SN00798392], the “% Inhibition n=1 48h” value is 0.0%.

Take `CCc1nc(-c2cc(S(=O)(=O)NCc3ccc(F)c(Cl)c3)c(C)s2)cs1` [SN00798443]: the “Average % Inhibition 24h” value was determined as 15.2%, the “% Inhibition n=1 24h” value came to 16.9%, the “% Inhibition n=2 24h” value is listed as 13.6% and the “Average % Inhibition 48h” value is 43.8%. Further, the “% Inhibition n=1 48h” value was determined as 50.2% and the “% Inhibition n=2 48h” value was determined as 37.5%.

As to `COc1ccc(C(=O)Nc2cc(-c3nc(C)cs3)sc2C)cc1OC` [SN00798474], the “% Inhibition n=1 48h” value is 27.2%.

On to `COc1ccc(-c2nc(CS(=O)(=O)c3ccc(C)cc3)no2)c(C)c1` [SN00798481], for which the “% Inhibition n=1 48h” value was found to be 11.0%.

Take `Cc1sc2cc(C(=O)NC(C)(C)C)[nH]c2c1CN1CCOCC1` [SN00798503]: the “% Inhibition n=1 48h” value is given as 2.4%.

Consider `Cc1sc2cc(C(=O)N3CCN(c4ccc(F)cc4)CC3)[nH]c2c1CN1CCOCC1` [SN00798508], for which the “% Inhibition n=1 48h” value is given as 27.9%.

Take `COc1ccc(CNC(=O)c2[nH]c3cc(C)sc3c2CN2CCCC2)cc1` [SN00798517]: the “% Inhibition n=1 48h” value was 35.5%.

For `CC(C)Cn1cc2c3c(cccc31)CN(C(=O)Cc1cccs1)CC2` [SN00798552], the “% Inhibition n=1 48h” value was 35.1%.

For `COCCn1cc2c3c(cccc31)CN(C(=O)c1cccc(Cl)c1)CC2` [SN00798558], the “% Inhibition n=1 48h” value is 26.2%.

With `Cn1cc2c3c(cccc31)CN(C(=O)NC(C)(C)C)CC2` [SN00798578], the “% Inhibition n=1 48h” value amounted to 7.2%.

Take `COCCn1cc2c3c(cccc31)CN(C(=O)Nc1ccccc1F)CC2` [SN00798581]: the “% Inhibition n=1 48h” value was determined as 22.0%.

Regarding `Cc1nnc(-c2cc(NS(=O)(=O)c3ccc(Cl)cc3)c(C)s2)o1` [SN00798629], the “% Inhibition n=1 48h” value was 2.8%.

In the case of `COc1ccccc1-c1nc(C2CCCN(C(=O)c3ccc(C(C)C)cc3)C2)no1` (stereo not shown) [SN00798647], the “% Inhibition n=1 48h” value amounted to 0.0%.

With `Cc1cc(C)cc(C(=O)NCc2ccc3c(c2)nnn3C)c1` [SN00798663], the “% Inhibition n=1 48h” value turned out to be 0.0%.

Turning to `Cn1nnc2cc(CNC(=O)c3ccc(F)cc3)ccc21` [SN00798670], the “% Inhibition n=1 48h” value came out at 3.3%.

Take `CCCNC(=O)c1cn(C)nc1S(=O)(=O)N1CCC(C)CC1` [SN00798692]: the “% Inhibition n=1 48h” value is 3.5%.

With `CCn1cc(C(=O)Nc2ccc(F)cc2)c(S(=O)(=O)N2CCC(C)CC2)n1` [SN00798700], the “% Inhibition n=1 48h” value was 0.0%.

As for `CCOC(=O)c1ccc(NC(=O)Cn2c(=O)cc(-c3nc(C)no3)c3ccccc32)cc1` [SN00798707], the “% Inhibition n=1 48h” value was 2.1%.

Turning to `CC(C)c1noc(-c2cc(=O)n(CC(=O)N3CCCC3)c3ccccc23)n1` [SN00798718], the “% Inhibition n=1 48h” value is listed as 0.0%.

In the case of `Nc1nc(N2CCN(C(=O)c3ccco3)CC2)ncc1C(=O)Nc1ccccc1` [SN00798744], the “% Inhibition n=1 48h” value is on record as 0.0%.

`COc1ccc(NC(=O)c2cnc(N3CCN(CC(=O)N4CCCC4)CC3)nc2N)cc1` [SN00798764]: the “% Inhibition n=1 48h” value came to 0.0%.

For the compound `O=S(=O)(c1cccs1)N1CCc2[nH]cnc2C1` [SN00798784], the “% Inhibition n=1 48h” value amounted to 0.0%.

For the origin of these results see article PMC9775191, “A Subset Screen of the Compounds Australia Scaffold Library Identifies 7-Acylaminodibenzoxazepinones as Potent and Selective Hits for Anti-Giardia Drug Discovery” (Biomedicines, 2022).
